Consider two compounds from patent publication US20230270721A1, “INHIBITION OF BAX-MEDIATED CELL DEATH BY ELTROMBOPAG” (Albert Einstein College of Medicine, priority 2020, published 2023).

Broadly, the IC50 is the concentration needed to halve the response being measured.

Structures are written as SMILES.

Data set [1] addresses T1, BAX (Homo sapiens, UniProt Q07812).
T1 construct: Human full-length (1-192) wild-type BAX (Q07812); made in house; host or cells: E. coli BL21 (DE3) CodonPlus (DE3)-RIPL
Put plainly: Competitive fluorescence polarization binding assay (FPA), BAX / FITC-BIM-SAHB. Conditions: BAX 150 nM, FITC-BIM-SAHB 25 nM; read-out: IC50, competition of FITC-BIM-SAHB by FPA. The protocol: Fluorescence polarization assays (FPA) were performed as previously described (Gavathiotis, E., et al. Nat Chem Biol 8, 639-645 (2012)). Direct binding isotherms of BIM-SAHB were measured by incubated FITC-BIM-SAHB (25 nM) with serial dilutions of full-length BAX alone or in the presence of 0.5 or 1 µM EO. Competition binding assays were performed by titrating ED into BAX (150 nM) and FITC-BIM-SAHB (25 nM). Measurements were taken at 10-minute intervals over 60 minutes on a TECAN F200 PRO microplate reader. Reported curves represent 10-minute time point. KD values and IC50 were determined using GraphPad Prism nonlinear fit four-parameter agonist or antagonist versus response with restraints for 100% and 0% bound calculated by the mP of saturated BAX + FITC-BIM-SAHB and FITC-BIM-SAHB alone.
To test this hypothesis, a competitive fluorescence polarization assay (FPA) (Gavathiotis, E., et al. Nat Chem Biol 8, 639-645 (2012)) based on the interaction between BAX and fluorescently-labeled stapled BIM-BH3 peptide (FITC-BIM-SAHB) was used (Gavathiotis, E., et al. Nature 455, 1076-1081 (2008)). […] The IC50 and KD are consistent with a competitive binding mechanism of EO displacing FITC-BIM-SAHB from the N-terminal trigger site of BAX.
On the technique in general: In fluorescence polarisation assays a small probe gives low polarisation when free and higher when bound to something large.

Data set [2] concerns the target T1, BAX. Put plainly: Liposomal permeabilization (ANTS/DPX release) assay. Type of data set: biochemical. Conditions: 50 nM BAX and 5 nM tBID; compared with EO. The protocol: Lipids (Avanti Polar Lipids) at the following ratio, phosphatidylcholine 48%, phosphatidylinositol 10%, dioleoyl phosphatidylserine 10%, phosphatidylethanolamine, 28%, and tetraoleoyl cardiolipin 4%, were mixed in a total of 1 mg, dried and resuspended in 10 mM HEPES, pH 7, 200 mM KCI, and 5 mM MgCl2 with 12.5 mM 8-aminonaphthalene-1,3,6-trisulfonic acid (ANTS) dye and 45 mM p-xylene-bis-pyridinium bromide (DPX) quencher (Molecular Probes) using a water bath sonicator. Liposomes were formed by extrusion of the suspension using Avanti Mini-Extruder (Cat # 610000) with polycarbonate membranes of 0.1 µm pore size (Avanti Polar Lipids). ANTS/DPX encapsulated liposomes were purified from non-encapsulated ANTS/DPX by gel filtration of a 10 mL CL2B-Sepharose (GE Healthcare Life Sciences) gravity-flow column. BAX (50-250 nM) was combined with tBID, BIM, and EO at the indicated concentrations to a volume of 90 µL. Reactions were initiated by the addition of […] of the encapsulated ANTS/DPX liposome stock. ANTS/DPX release was quantified based on the increase in fluorescence intensity that occurs when the ANTS fluorophore is separated from the DPX quencher upon release from the liposomes into solution. Fluorescence (λex = 355 nm and λem = 520 nm) was measured at 1 minute intervals at room temperature (22-25° C.) indicated using a Tecan Infinite M1000 plate reader. In the case of heat activation, reactions were set up as described in the absence of tBID or BIM, and experiments were recorded at 42° C. The percentage release of ANTS/DPX at any given time point was calculated as percentage release=((F-F0)/(F100-F0))(100), where F0 and F100 are baseline and maximal fluorescence, respectively. Triton X-100 (1%) was used to determine the maximum amount of liposomal release per assay and was set to 100%.
Next, EO’s capacity to modulate BAX activity was evaluated using liposomal release assays. […] Instead, EO was able to inhibit both tBID- and BIM BH3-mediated BAX activation (FIGS. 1E, 1F, and 1G). Inhibition of tBID-mediated BAX activation by EO was inversely proportional to the concentration of the tBID activator, consistent with competitive inhibition of BH3-activator binding.

For data set [3], the system named is platelets of C57BL/6J mice. Put plainly: In vivo mouse platelet experiments. Particulars: ABT-263 25 mg/kg single dose, oral gavage, within 24 hr. The protocol: Wild type black mice strain C57BL/6J were treated with vehicle, ABT-263 (25 mg/kg, single dose), EO (100 mg/kg, then 3 hrs later 50 mg/kg), or a combination of ABT-263 and EO. EO was formulated in dH2O, and ABT-263 was formulated in 10% ethanol, 30% polyethylene glycol 400, and 60% Phosal 50 PG. Both ABT-263 and EO were administered by oral gavage. Blood samples were collected by submandibular bleed before treatment and 24 hours following treatment, and CBC was acquired. Percentage platelet protection was calculated as follows: % Platelet Protection = (100)(Px - mPABT)/(mPv - mPABT) where Px is the platelet count for a given mouse, mPv is the mean vehicle treated platelet count, and mPABT is the mean ABT-263 treated platelet count. Statistical analysis was performed using one-way ANOVA with select multiple comparisons as shown.
Finally, whether EO can rescue thrombocytopenia induced by the activity of navitoclax was evaluated in mice. The use of navitoclax is limited by on-target toxicity triggering BAK/BAX-mediated platelet apoptosis (Zhang, H. et al. Cell Death Differ 14, 943-951 (2007)). […] This EO effect is distinct from its capacity to stimulate platelet production by differentiation of the megakaryocyte precursors and progenitor cells, which requires 5 days to begin (Erickson-Miller, C. L. et al. Stem Cells 27, 424-430 (2009); Jenkins, J. M. et al. Blood 109, 4739-4741 (2007)).

T1 sequence (Q07812 whole entry): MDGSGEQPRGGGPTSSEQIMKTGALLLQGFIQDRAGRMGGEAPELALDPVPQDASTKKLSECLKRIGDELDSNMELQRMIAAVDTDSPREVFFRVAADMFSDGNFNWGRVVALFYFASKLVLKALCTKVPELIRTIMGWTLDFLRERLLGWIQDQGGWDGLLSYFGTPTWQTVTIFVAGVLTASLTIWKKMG

Take `COC(=O)c1cccc(-c2cccc(NN=C3C(=O)N(c4ccc(C)c(C)c4)N=C3C)c2O)c1` [EO-Methyl Ester, eltrombopag methyl ester]: the IC50 in data set [1] is over 5 µM. For the same compound, the “inhibition of BAX in liposomal release assays” value in data set [2] is “significantly diminished inhibition”.

On to `CC1(C)CCC(c2ccc(Cl)cc2)=C(CN2CCN(c3ccc(C(=O)NS(=O)(=O)c4ccc(N[C@H](CCN5CCOCC5)CSc5ccccc5)c(S(=O)(=O)C(F)(F)F)c4)cc3)CC2)C1` [navitoclax], for which the platelet loss entry in data set [3] was “significant platelet loss”.
